#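 Compound exposure: 48 hours, 5 concentrations, 96-well plates. Here, GI50 denotes the concentration required for 50% inhibition of growth. TGI is the concentration that stops growth completely.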
# Experiments:
# Experiment in all cases: NCI anticancer screen, dose series, 48 h
# HCC-2998 colon = tested on: HCC-2998 colon
# HCT-15 colon = tested on: HCT-15 colon
# MCF7 breast = tested on: MCF7 breast
# 786-0 renal = tested on: 786-0 renal
# SK-MEL-5 melanoma = tested on: SK-MEL-5 melanoma
# MDA-MB-231 breast = tested on: MDA-MB-231 breast
# SNB-19 CNS = tested on: SNB-19 CNS
# K-562 leukemia = tested on: K-562 leukemia
# T-47D breast = tested on: T-47D breast
# A549 NSCLC = tested on: A549 NSCLC
# OVCAR-3 ovarian = tested on: OVCAR-3 ovarian
# LOX IMVI melanoma = tested on: LOX IMVI melanoma
# TK-10 renal = tested on: TK-10 renal
# ACHN renal = tested on: ACHN renal
# SW-620 colon = tested on: SW-620 colon
# COLO 205 colon = tested on: COLO 205 colon
# A498 renal = tested on: A498 renal
# MALME-3M melanoma = tested on: MALME-3M melanoma
# CAKI-1 renal = tested on: CAKI-1 renal
# HOP-62 NSCLC = tested on: HOP-62 NSCLC
# SF-295 CNS = tested on: SF-295 CNS
# OVCAR-4 ovarian = tested on: OVCAR-4 ovarian
# SK-OV-3 ovarian = tested on: SK-OV-3 ovarian
# MOLT-4 leukemia = tested on: MOLT-4 leukemia
# HOP-92 NSCLC = tested on: HOP-92 NSCLC
# HT29 colon = tested on: HT29 colon
# OVCAR-5 ovarian = tested on: OVCAR-5 ovarian
# RXF 393 renal = tested on: RXF 393 renal
# UACC-62 melanoma = tested on: UACC-62 melanoma
# KM12 colon = tested on: KM12 colon
# OVCAR-8 ovarian = tested on: OVCAR-8 ovarian
# DU-145 prostate = tested on: DU-145 prostate
# U251 CNS = tested on: U251 CNS
# NCI/ADR-RES ovarian = tested on: NCI/ADR-RES ovarian
# SF-268 CNS = tested on: SF-268 CNS
# HCT-116 colon = tested on: HCT-116 colon
# MDA-MB-435 = tested on: MDA-MB-435
# RPMI-8226 leukemia = tested on: RPMI-8226 leukemia
# SR leukemia = tested on: SR leukemia
# NCI-H23 lung = tested on: NCI-H23 lung
# SNB-75 CNS = tested on: SNB-75 CNS
# IGROV1 ovarian = tested on: IGROV1 ovarian
# PC-3 prostate = tested on: PC-3 prostate
# SK-MEL-28 melanoma = tested on: SK-MEL-28 melanoma
# CCRF-CEM leukemia = tested on: CCRF-CEM leukemia
# UO-31 renal = tested on: UO-31 renal
# SF-539 CNS = tested on: SF-539 CNS
# NCI-H522 lung = tested on: NCI-H522 lung
# SK-MEL-2 melanoma = tested on: SK-MEL-2 melanoma
# NCI-H460 lung = tested on: NCI-H460 lung
# SN12C renal = tested on: SN12C renal
# UACC-257 melanoma = tested on: UACC-257 melanoma
# NCI-H226 lung = tested on: NCI-H226 lung
# BT-549 breast = tested on: BT-549 breast
# HL-60(TB) leukemia = tested on: HL-60(TB) leukemia
smiles,measurement,setting,value
CCn1nc(-c2ccc(C(=O)OC)cc2)nc2c(=O)n(C)c(=O)nc1-2,GI50,HCC-2998 colon,0.763 µM
same,TGI,HCC-2998 colon,2.24 µM
same,GI50,HCT-15 colon,0.371 µM
same,TGI,HCT-15 colon,1.61 µM
same,GI50,MCF7 breast,0.148 µM
same,TGI,MCF7 breast,0.372 µM
same,GI50,786-0 renal,1.32 µM
same,TGI,786-0 renal,3.31 µM
same,GI50,SK-MEL-5 melanoma,0.128 µM
same,TGI,SK-MEL-5 melanoma,0.26 µM
same,GI50,MDA-MB-231 breast,0.461 µM
same,TGI,MDA-MB-231 breast,6.33 µM
same,GI50,SNB-19 CNS,1.11 µM
same,TGI,SNB-19 CNS,2.37 µM
same,GI50,K-562 leukemia,0.251 µM
same,TGI,K-562 leukemia,1.09 µM
same,GI50,T-47D breast,0.332 µM
same,TGI,T-47D breast,1.42 µM
same,GI50,A549 NSCLC,0.413 µM
same,TGI,A549 NSCLC,1.72 µM
same,GI50,OVCAR-3 ovarian,0.181 µM
same,TGI,OVCAR-3 ovarian,0.566 µM
same,GI50,LOX IMVI melanoma,0.375 µM
same,TGI,LOX IMVI melanoma,1.5 µM
same,GI50,TK-10 renal,3.11 µM
same,TGI,TK-10 renal,6.74 µM
same,GI50,ACHN renal,1.08 µM
same,TGI,ACHN renal,2.26 µM
same,GI50,SW-620 colon,0.676 µM
same,TGI,SW-620 colon,2.18 µM
same,GI50,COLO 205 colon,0.211 µM
same,TGI,COLO 205 colon,0.643 µM
same,GI50,A498 renal,0.166 µM
same,TGI,A498 renal,0.988 µM
same,GI50,MALME-3M melanoma,0.216 µM
same,TGI,MALME-3M melanoma,0.836 µM
same,GI50,CAKI-1 renal,1.22 µM
same,TGI,CAKI-1 renal,2.46 µM
same,GI50,HOP-62 NSCLC,1.07 µM
same,TGI,HOP-62 NSCLC,2.58 µM
same,GI50,SF-295 CNS,0.637 µM
same,TGI,SF-295 CNS,1.98 µM
same,GI50,OVCAR-4 ovarian,0.479 µM
same,TGI,OVCAR-4 ovarian,1.88 µM
same,GI50,SK-OV-3 ovarian,1.45 µM
same,TGI,SK-OV-3 ovarian,2.75 µM
same,GI50,MOLT-4 leukemia,0.393 µM
same,TGI,MOLT-4 leukemia,2.41 µM
same,GI50,HOP-92 NSCLC,1.72 µM
same,TGI,HOP-92 NSCLC,3.39 µM
same,GI50,HT29 colon,0.266 µM
same,TGI,HT29 colon,2.4 µM
same,GI50,OVCAR-5 ovarian,0.46 µM
same,TGI,OVCAR-5 ovarian,1.77 µM
same,GI50,RXF 393 renal,1.57 µM
same,TGI,RXF 393 renal,3.26 µM
same,GI50,UACC-62 melanoma,0.216 µM
same,TGI,UACC-62 melanoma,0.594 µM
same,GI50,KM12 colon,0.421 µM
same,TGI,KM12 colon,2.23 µM
same,GI50,OVCAR-8 ovarian,0.368 µM
same,TGI,OVCAR-8 ovarian,1.45 µM
same,GI50,DU-145 prostate,1.11 µM
same,TGI,DU-145 prostate,2.32 µM
same,GI50,U251 CNS,0.36 µM
same,TGI,U251 CNS,1.38 µM
same,GI50,NCI/ADR-RES ovarian,0.484 µM
same,TGI,NCI/ADR-RES ovarian,2.42 µM
same,GI50,SF-268 CNS,1.12 µM
same,TGI,SF-268 CNS,3.06 µM
same,GI50,HCT-116 colon,0.283 µM
same,TGI,HCT-116 colon,1.01 µM
same,GI50,MDA-MB-435,0.162 µM
same,TGI,MDA-MB-435,0.31 µM
same,GI50,RPMI-8226 leukemia,0.34 µM
same,TGI,RPMI-8226 leukemia,1.76 µM
same,GI50,SR leukemia,0.744 µM
same,TGI,SR leukemia,12.1 µM
same,GI50,NCI-H23 lung,1.22 µM
same,TGI,NCI-H23 lung,3.16 µM
same,GI50,SNB-75 CNS,1.19 µM
same,TGI,SNB-75 CNS,2.42 µM
same,GI50,IGROV1 ovarian,1.08 µM
same,TGI,IGROV1 ovarian,2.45 µM
same,GI50,PC-3 prostate,0.347 µM
same,TGI,PC-3 prostate,8.22 µM
same,GI50,SK-MEL-28 melanoma,1.38 µM
same,TGI,SK-MEL-28 melanoma,2.88 µM
same,GI50,CCRF-CEM leukemia,0.566 µM
same,TGI,CCRF-CEM leukemia,11.3 µM
same,GI50,UO-31 renal,1.08 µM
same,TGI,UO-31 renal,2.28 µM
same,GI50,SF-539 CNS,0.359 µM
same,TGI,SF-539 CNS,1.55 µM
same,GI50,NCI-H522 lung,0.484 µM
same,TGI,NCI-H522 lung,1.99 µM
same,GI50,SK-MEL-2 melanoma,0.524 µM
same,TGI,SK-MEL-2 melanoma,2.04 µM
same,GI50,NCI-H460 lung,0.488 µM
same,TGI,NCI-H460 lung,3.27 µM
same,GI50,SN12C renal,0.193 µM
same,TGI,SN12C renal,0.411 µM
same,GI50,UACC-257 melanoma,0.306 µM
same,TGI,UACC-257 melanoma,1.08 µM
same,GI50,NCI-H226 lung,1.36 µM
same,TGI,NCI-H226 lung,2.69 µM
same,GI50,BT-549 breast,1.55 µM
same,TGI,BT-549 breast,2.99 µM
same,GI50,HL-60(TB) leukemia,0.319 µM
same,TGI,HL-60(TB) leukemia,1.15 µM

# Reference: PubChem BioAssay (NCI)
